These results are taken from ChEMBL document CHEMBL5346925, “3,4-Dihydrobenzo[e][1,2,3]oxathiazine 2,2-dioxide analogs act as potential AMPA receptor potentiators with antidepressant activity” (Eur J Med Chem, 2023).

A short description of data set [1]: Tmax in Sprague-Dawley rat at 0.1 mg/kg, iv by LC-MS/MS analysis. The conditions noted are these: in vivo. It is filed as ADME, organism-based.
The nature of data set [2]: Tmax in Sprague-Dawley rat at 1 mg/kg, po by LC-MS/MS analysis. The following applies: in vivo. The format is ADME, organism-based.
Data set [3] is described as follows: Drug concentration in Sprague-Dawley rat plasma at 1 mg/kg, po measured after 8 hr by LC-MS/MS analysis. It is filed as ADME, organism-based.
Data set [4] in a line: Drug concentration in Sprague-Dawley rat brain at 1 mg/kg, po measured after 1 hr by LC-MS/MS analysis. The format is ADME, organism-based. The conditions noted are these: read-out: Ct.
Data set [5] in a line: Drug concentration in Sprague-Dawley rat brain at 1 mg/kg, po measured after 24 hrs by LC-MS/MS analysis. It is filed as ADME, organism-based. The following applies: read-out: Ct.
The nature of data set [6]: Ratio of drug concentration in brain to plasma in Sprague-Dawley rat at 1 mg/kg, po measured after 0.25 hrs by LC-MS/MS analysis. The format is ADME, organism-based. The following applies: read-out: BPR.
The nature of data set [7]: Ratio of drug concentration in brain to plasma in Sprague-Dawley rat at 1 mg/kg, po measured after 0.50 hrs by LC-MS/MS analysis. The format is ADME, organism-based. The conditions noted are these: read-out: BPR.
Data set [8] is described as follows: Ratio of drug concentration in brain to plasma in Sprague-Dawley rat at 1 mg/kg, po measured after 4 hrs by LC-MS/MS analysis. It is filed as ADME, organism-based. The conditions noted are these: read-out: BPR.
Data set [9] in a line: Ratio of drug concentration in brain to plasma in Sprague-Dawley rat at 1 mg/kg, po measured after 6 hrs by LC-MS/MS analysis. The following applies: read-out: BPR. It is filed as ADME, organism-based.
Data set [10] in a line: Toxicity in mouse assessed as histopathological changes in liver at 0.2 to 0.4 mg/kg, ip administered once daily for 2 weeks and measured after 15 days by H and E staining based analysis. It is filed as organism-based. The conditions noted are these: in vivo, 360 h, dose 0.2-0.4 mg/kg, time 15 day.
A short description of data set [11]: Toxicity in mouse assessed as histopathological changes in heart at 0.2 to 0.4 mg/kg, ip administered once daily for 2 weeks and measured after 15 days by H and E staining based analysis. It is filed as organism-based. The following applies: in vivo, 360 h, dose 0.2-0.4 mg/kg, time 15 day.

As to `O=S1(=O)NCc2cccc(-c3ccc(-c4ccccc4F)cc3)c2O1`, the Tmax (as a rule, the time at which the peak concentration occurs) was 4.8 min in data set [1] and 30 min in data set [2]. The compound also came in with a concentration at 8 h in data set [3] of 25.5 ng/mL. In data set [4], the concentration at 1 h is 217 ng/g. The concentration at 24 h in [5] amounted to 6.05 ng/g. The Kp at 0.25 h in data set [6] is 0.59. Also, the Kp at 0.5 h in data set [7] stood at 1.08. Moreover, the Kp at 4 h in data set [8] came to 1.55. Moreover, in [9], the Kp at 6 h turned out to be 1.73. In addition, the Activity result in data set [10] and in [11] was “Non-Toxic” throughout.
